# From patent publication US10669272B2, “Substituted naphthyridinone compounds useful as T cell activators” (BRISTOL-MYERS SQUIBB COMPANY, priority 2018, dated 2020)
# Where two headings read alike, the source gives them in different places.
# Columns and labels:
# [1] = target: T1, human DGKζ (Homo sapiens, UniProt Q13574); experiment: DGKζ LIPGLO assay (extruded liposome substrate), in vitro DGK inhibition; assay type: biochemical; conditions: read-out: DGKz LIPGLO IC50
# T1 construct: TVMV protease cleavage site (C); Hexa-His (C); made in house; host or cells: Sf9 insect cells (baculovirus, Bac-to-Bac)
# T1 sequence (Q13574 with tags, fused parts or gaps isoform Q13574-4): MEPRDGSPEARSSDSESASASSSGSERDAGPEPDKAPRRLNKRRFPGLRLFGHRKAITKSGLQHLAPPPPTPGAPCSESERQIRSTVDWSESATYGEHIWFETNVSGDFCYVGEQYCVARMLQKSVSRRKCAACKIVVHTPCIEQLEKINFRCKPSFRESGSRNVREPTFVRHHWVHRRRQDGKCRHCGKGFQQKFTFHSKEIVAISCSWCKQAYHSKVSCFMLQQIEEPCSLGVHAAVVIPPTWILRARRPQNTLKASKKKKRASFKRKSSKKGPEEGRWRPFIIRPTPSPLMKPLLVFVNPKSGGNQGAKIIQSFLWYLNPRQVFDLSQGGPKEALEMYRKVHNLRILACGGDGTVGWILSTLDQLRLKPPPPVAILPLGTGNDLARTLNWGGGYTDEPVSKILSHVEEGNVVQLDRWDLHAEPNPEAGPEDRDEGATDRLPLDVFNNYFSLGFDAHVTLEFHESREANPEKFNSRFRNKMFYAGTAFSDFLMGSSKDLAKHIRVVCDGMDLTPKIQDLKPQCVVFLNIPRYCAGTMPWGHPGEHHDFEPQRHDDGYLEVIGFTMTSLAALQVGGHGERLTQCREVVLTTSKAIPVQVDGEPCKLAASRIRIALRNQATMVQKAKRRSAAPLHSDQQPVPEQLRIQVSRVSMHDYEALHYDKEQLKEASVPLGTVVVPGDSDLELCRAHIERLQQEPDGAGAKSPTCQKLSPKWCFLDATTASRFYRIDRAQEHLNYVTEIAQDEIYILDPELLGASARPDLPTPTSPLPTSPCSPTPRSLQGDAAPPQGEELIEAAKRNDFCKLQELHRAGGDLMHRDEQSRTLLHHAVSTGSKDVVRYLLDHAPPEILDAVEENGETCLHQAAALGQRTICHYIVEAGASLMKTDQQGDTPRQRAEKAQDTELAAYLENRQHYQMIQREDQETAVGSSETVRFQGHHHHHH
# [2] = target: T2, human DGKα (Homo sapiens, UniProt P23743); experiment: DGKα LIPGLO assay (extruded liposome substrate), in vitro DGK inhibition; assay type: biochemical; conditions: read-out: DGKa LIPGLO IC50
# T2 construct: TVMV protease cleavage site (C); Hexa-His (C); made in house; host or cells: Sf9 insect cells (baculovirus, Bac-to-Bac)
# T2 sequence (P23743 with tags, fused parts or gaps): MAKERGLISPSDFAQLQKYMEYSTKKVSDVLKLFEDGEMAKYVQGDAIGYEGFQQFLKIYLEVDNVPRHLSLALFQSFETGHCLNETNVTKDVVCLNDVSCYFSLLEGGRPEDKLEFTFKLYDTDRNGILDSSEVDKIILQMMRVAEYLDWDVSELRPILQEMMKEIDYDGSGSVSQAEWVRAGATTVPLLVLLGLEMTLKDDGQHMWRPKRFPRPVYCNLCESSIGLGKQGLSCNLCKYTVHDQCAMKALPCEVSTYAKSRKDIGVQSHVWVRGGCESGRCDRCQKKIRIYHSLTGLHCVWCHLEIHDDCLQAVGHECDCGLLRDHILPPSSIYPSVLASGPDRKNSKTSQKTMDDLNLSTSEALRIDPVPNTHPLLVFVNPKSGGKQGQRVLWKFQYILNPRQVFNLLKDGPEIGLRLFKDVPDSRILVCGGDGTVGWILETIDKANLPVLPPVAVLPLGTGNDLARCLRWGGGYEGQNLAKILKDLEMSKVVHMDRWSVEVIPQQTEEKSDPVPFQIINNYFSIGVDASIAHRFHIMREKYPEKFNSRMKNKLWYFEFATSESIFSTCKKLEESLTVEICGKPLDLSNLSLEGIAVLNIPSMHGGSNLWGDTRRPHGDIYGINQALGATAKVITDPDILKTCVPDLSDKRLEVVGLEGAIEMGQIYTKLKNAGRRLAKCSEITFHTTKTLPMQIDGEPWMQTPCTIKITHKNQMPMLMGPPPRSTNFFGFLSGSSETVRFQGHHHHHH
Compound,IC50 ([1]; liposome (LIPGLO) assay),IC50 ([2]; liposome (LIPGLO) assay),IC50 ([1]; DGKζ liposome (LIPGLO) assay),IC50 ([2]; DGKα liposome (LIPGLO) assay)
"CCOC[C@@H]1CN(c2cc(=O)n(C)c3ccc(C#N)nc23)[C@@H](C)CN1C(C)c1ccc(OC(F)(F)F)cc1 (single isomer, unassigned) [Example 1397]",0.054 µM,1.3 µM,–,–
"C[C@@H]1CN(C(c2ccc(F)cc2)c2ccc(F)cc2)[C@@H](C)CN1c1c(C#N)c(=O)n(C)c2ccc(Br)nc12 [Example 5, 4-((2R,5S)-4-(bis(4-fluorophenyl)methyl)-2,5-dimethylpiperazin-1-yl)-6-bromo-1-methyl-2-oxo-1,2-dihydro-1,5-naphthyridine-3-carbonitrile]",42 µM,23 µM,–,–
Cc1ccc(CN2CCN(c3c(C#N)c(=O)n(C)c4ccc(C#N)nc34)C[C@H]2C)cc1 [Example 1007],–,–,3.9 µM,0.42 µM
"Cc1nc2ccc(C(C)N3C[C@H](C)N(c4cc(=O)n(C)c5ccc(C#N)nc45)C[C@H]3C)cc2s1 (single isomer, unassigned) [Example 1264]",3.6 µM,10 µM,–,–
"CC[C@H]1CN(C(c2ccc(C)cc2)c2ccc(Cl)cc2)[C@H](C)CN1c1cc(=O)n(C)c2ccc(C#N)nc12 (single isomer, unassigned) [Example 1122]",0.84 µM,0.71 µM,–,–
"Cc1ccc(C(c2ccc(Cl)cn2)N2CCN(c3c(C#N)c(=O)n(C)c4ccc(C#N)nc34)C[C@H]2C)cc1 (single isomer, unassigned) [Example 936]",–,–,3.3 µM,1 µM
CCOc1cccc(CN2C[C@H](C)N(c3cc(=O)n(C)c4ccc(C#N)nc34)C[C@H]2C)c1 [Example 599],1.9 µM,3.1 µM,–,–
"C[C@@H]1CN(c2cc(=O)n(C)c3ccc(C#N)nc23)[C@@H](C)CN1C(c1ccc(F)cc1)c1cccnn1 (single isomer, unassigned) [Example 384]",6.9 µM,1.5 µM,–,–
"C[C@@H]1CN(c2cc(=O)n(C)c3ccc(C#N)nc23)[C@@H](C)CN1C(c1ccc(F)cc1)c1ccncn1 (single isomer, unassigned) [Example 402]",9.3 µM,0.82 µM,–,–
Cc1ccc(C(c2cccc(F)c2)N2C[C@H](C)N(c3cc(=O)n(C)c4ccc(C#N)nc34)C[C@H]2CO)nc1 (stereo partly drawn) [Example 1153],32 µM,6.6 µM,–,–
"COC(=O)c1ccc(C(C)N2C[C@H](C)N(c3c(C#N)c(=O)n(C)c4ccc(C#N)nc34)C[C@H]2C)cc1 (single isomer, unassigned) [Example 793]",–,–,11 µM,6.9 µM
"C[C@@H]1CN(c2cc(=O)n(C)c3ccc(C#N)nc23)[C@@H](C)CN1C(c1ccc(OC(F)(F)F)cc1)c1ccccn1 (stereo partly drawn) [Example 405, 8-((2S,5R)-2,5-dimethyl-4-(pyridin-2-yl(4-(trifluoromethoxy)phenyl)methyl)piperazin-1-yl)-5-methyl-6-oxo-5,6-dihydro-1,5-naphthyridine-2-carbonitrile]",4 µM,0.46 µM,–,–
"C[C@@H]1CN(c2cc(=O)n(C)c3ccc(C#N)nc23)[C@@H](C)CN1C(c1cccc(F)c1)c1ccccn1 (stereo partly drawn) [Example 404, 8-((2S,5R)-4-((3-fluorophenyl)(pyridin-2-yl)methyl)-2,5-dimethylpiperazin-1-yl)-5-methyl-6-oxo-5,6-dihydro-1,5-naphthyridine-2-carbonitrile]",4.1 µM,0.36 µM,–,–
"C[C@@H]1CN(c2cc(=O)n(C)c3ccc(C#N)nc23)[C@@H](C)CN1C(c1ccc(F)cc1)c1cncc(F)c1 (single isomer, unassigned) [Example 386]",4.6 µM,2.3 µM,–,–
"CC(C)[C@H]1CN(C(c2ccc(F)cc2)c2ccc(F)cc2)[C@@H](C)CN1c1cc(=O)n(C)c2ccc(C#N)nc12 [Example 125, 8-((2S,5S)-4-(bis(4-fluorophenyl)methyl)-2-isopropyl-5-methylpiperazin-1-yl)-5-methyl-6-oxo-5,6-dihydro-1,5-naphthyridine-2-carbonitrile]",240 µM,36 µM,–,–
CC(=O)N1CCOc2c(CN3C[C@H](C)N(c4cc(=O)n(C)c5ccc(C#N)nc45)C[C@H]3C)cccc21 [Example 631],4.3 µM,1.4 µM,–,–
"CC[C@@H]1CN(c2cc(=O)n(C)c3ccc(C#N)nc23)[C@@H](C)CN1C(C)c1ccc(OC(F)(F)F)cc1F (single isomer, unassigned) [Example 1095]",0.018 µM,0.027 µM,–,–
"C[C@@H]1CN(c2cc(=O)n(C)c3ccc(C#N)nc23)[C@@H](C)CN1C(c1ccc(F)cc1)c1nc(C(C)(C)C)co1 (single isomer, unassigned) [Example 778]",–,–,0.34 µM,0.15 µM
